# Data as given in patent US8314247B2, “Hydrazone derivative” (Mitsubishi Tanabe Pharma Corporation, priority 2007, dated 2012).
# Target: T1, human-liver type GST-GK (Homo sapiens, UniProt P35557)
# T1 construct: made in house; host or cells: E. coli
# T1 sequence (P35557 1-466 isoform P35557-2): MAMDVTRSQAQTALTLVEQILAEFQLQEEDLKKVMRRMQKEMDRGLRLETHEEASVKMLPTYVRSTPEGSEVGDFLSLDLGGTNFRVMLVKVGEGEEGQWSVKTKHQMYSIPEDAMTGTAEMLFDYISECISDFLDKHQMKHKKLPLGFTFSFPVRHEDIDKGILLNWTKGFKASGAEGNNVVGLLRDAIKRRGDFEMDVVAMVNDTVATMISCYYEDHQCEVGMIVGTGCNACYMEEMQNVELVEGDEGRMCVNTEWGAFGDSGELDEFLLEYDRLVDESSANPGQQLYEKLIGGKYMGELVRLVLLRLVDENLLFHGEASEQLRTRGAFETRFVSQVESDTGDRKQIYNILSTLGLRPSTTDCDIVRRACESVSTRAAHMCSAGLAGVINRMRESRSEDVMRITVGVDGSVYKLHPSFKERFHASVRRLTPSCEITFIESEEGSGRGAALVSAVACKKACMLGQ
# Experiment: Glucokinase activation effect (G6PDH-coupled NADPH assay)
# Assay type: biochemical
# Conditions: glucose 5 mM, ATP 5 mM, 30° C., NADPH monitored at 340 nm for 10 minutes, compound 0.01 to 100 μM (5% DMSO)
# Method: A glucokinase activity was examined by measuring the amount of NADPH obtained in generating 6-phosphogluconic acid from […], not by directly measuring the generated glucose-6-phosphoric acid. The glucokinase enzyme used in the examination was human-liver type GST-GK expressed by E. Coli. The measurement of the activity was carried out by the following procedures. Specifically, 30 mM HEPES buffer (pH7.4) containing 30 mM MgCl2, 30 mM KCl, 1 mM DTT, 5 mM NADP (Nacalai), 0.7 mU/mL G6PDH (Roche 737-232 grade II from yeast) and 0.17 μL/mL GST-GK was prepared as a reaction solution. An evaluating compound dissolved in DMSO was added to the reaction solution to give a final concentration of 0.01 to 100 μM (5% DMSO). Thereto was added glucose (final concentration of 5 mM) as a substrate and was added ATP (final concentration of 5 mM) to proceed the reaction. The reaction temperature is 30° C. and a generation of NADPH was monitored by changes of absorbance of 340 nm. An increase of absorbance for 10 minutes after starting reaction was measured and the blank-corrected value was used as a GK activity (mOD/min). EC50 level was calculated by a GK activity level in an addition of the evaluating compound at each concentration.
row,SMILES,EC50 [nM]
1,COc1ccc2nc(NC(=O)/C(=N/N3CCCC3)c3ccc(S(=O)(=O)C4CC4)cc3)sc2n1 [Example 1],70
2,O=C(Nc1ncc(Br)s1)/C(=N/N1CCCC1)c1ccc(S(=O)(=O)C2CC2)cc1 [Example 24],30
3,CN1CCN(S(=O)(=O)c2cnc(NC(=O)/C(=N/N3CCCC3)c3ccc(S(=O)(=O)C4CC4)cc3)s2)CC1 [Example 27],220
4,CN(C)S(=O)(=O)c1cnc(NC(=O)/C(=N/N2CCCC2)c2ccc(S(=O)(=O)C3CC3)cc2)s1 [Example 64],120

# Further molecules by falling EC50, results first:
row,EC50 [nM],SMILES
1,360,O=C(Nc1ncc(F)s1)/C(=N/N1CCOCC1)c1ccc(S(=O)(=O)C2CC2)cc1 [Example 2]
2,110,O=C(Nc1ncc(Cl)s1)/C(=N/N1CCOCC1)c1ccc(S(=O)(=O)C2CC2)cc1 [Example 42]
